Laboratory results from patent US9309220B2, “Processes for the preparation of (S)-3-(4- (4-(morpholinomethyl)benzyl)oxy)-1-oxoisoindolin-2-yl)piperidine-2,6-dione and pharmaceutically acceptable forms thereof” (Celgene Corporation, priority 2012, dated 2016).
Structures can show the parent of a compound that is named as a salt.

Test: eutectic enantioexcess (eeeu) / eutectic solubility of (S)-enantiomer form with corresponding racemic compound
Format: physicochemical
Protocol: The majority of racemic mixtures preferentially form racemic compounds (reference Jacques book). The saturation solubility of a racemic compound and the pure enantiomer in the presence of a solvent is known as the eutectic point. The ratio of the solubility, i.e., the “eutectic enantioexcess” (eeeu), is a useful parameter to assess the chiral upgrade capability for a given system. The eeeu is calculated from the relative solubility of the R- and S-enantiomers: eeeu=([major]−[minor])/([major]+[minor]), where [major] is the solubility of the major enantiomer at the eutectic, and [minor] is the solubility of the minor enantiomer at the eutectic. […] The eeeu can be dependent on temperature in all cases. […]
Physical characterization confirmed that the HCl salt of the racemic compound was a hydrate, which was determined to be a thermodynamically stable crystal form. […] The quantities of solvent and equipment capacity needed to provide chiral upgrade would be impractical and uneconomical. For instance, to upgrade from 90% ee to 98% ee, it was calculated to require 200 L solvent per kg starting material.
From this eeeu, it was calculated that achieving an upgrade from 90% ee to 98% ee would require 46 L solvent per kg starting material which, while an improvement, is still undesirable. […]

| eutectic enantioexcess (eeeu) (hydrate with corresponding hydrate racemic compound, 22° C.) [%] | absolute solubility | SMILES |
| --- | --- | --- |
| 89.2 |  | O.O=C1CC[C@H](N2Cc3c(OCc4ccc(CN5CCOCC5)cc4)cccc3C2=O)C(=O)N1 [(S)-3-(4-((4-(morpholinomethyl)benzyl)oxy)-1-oxoisoindolin-2-yl)piperidine-2,6-dione hydrate] |
|  | quite low | O=C1CC[C@H](N2Cc3c(OCc4ccc(CN5CCOCC5)cc4)cccc3C2=O)C(=O)N1 [(S)-3-(4-((4-(morpholinomethyl)benzyl)oxy)-1-oxoisoindolin-2-yl)piperidine-2,6-dione hydrochloride] |
